Data on 19 molecules can be found in US20180265515A1 (Genentech, Inc., priority 2015, published 2018).

Assay [1] addresses T1, isolated recombinant JAK1 kinase domain (Homo sapiens, UniProt P23458).
T1 construct: The activity of the isolated recombinant JAK1 and JAK2 kinase domain was measured
As to the kind of experiment: JAK1 enzyme assay (Caliper LabChip, Ki). The format is biochemical. As to conditions: recombinant JAK1 kinase domain, 25 μM ATP. An outline of the steps: (§1)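 Values are Ki estimates derived with the Morrison tight-binding equation modified for competition with ATP. Activity of the recombinant kinase domains was measured as peptide phosphorylation on a Caliper LabChip after a 30-minute, 22° C reaction terminated by EDTA.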

Assay [2] concerns the target T2, isolated recombinant JAK2 kinase domain (Homo sapiens, UniProt O60674).
T2 construct: The activity of the isolated recombinant JAK1 and JAK2 kinase domain was measured
Kind of assay: JAK2 enzyme assay (Caliper LabChip, Ki). It is filed as biochemical. To be noted: 25 μM ATP. An outline of the steps: as §1

The subject of assay [3] is JAK1-dependent STAT6 phosphorylation downstream of IL-13 stimulation in BEAS-2B human bronchial epithelial cells. As to the kind of experiment: JAK1 pathway assay in BEAS-2B cells (IL-13 stimulated STAT6 phosphorylation, MSD). It is filed as cell-based. To be noted: read-out: P-STAT6 BEAS2B + IL13 IC50. An outline of the steps: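 BEAS-2B human bronchial epithelial cells, plated the day before in complete growth medium, were preincubated with compound for 1 hr at 37° C (0.2% DMSO final), then stimulated with IL-13 at its EC90 for 15 min. STAT6 phosphorylation in lysates was read by MSD; EC50 was taken as 50% inhibition versus DMSO control.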

T1 sequence (P23458 875-1153 limits assumed): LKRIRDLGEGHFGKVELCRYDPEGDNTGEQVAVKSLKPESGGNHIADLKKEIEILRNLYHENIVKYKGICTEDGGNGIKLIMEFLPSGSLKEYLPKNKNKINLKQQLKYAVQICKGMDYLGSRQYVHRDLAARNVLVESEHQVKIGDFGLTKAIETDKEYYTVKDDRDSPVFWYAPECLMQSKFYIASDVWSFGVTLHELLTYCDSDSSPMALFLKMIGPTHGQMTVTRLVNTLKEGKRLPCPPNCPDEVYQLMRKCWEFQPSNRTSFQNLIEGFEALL
T2 sequence (O60674 849-1124 limits assumed): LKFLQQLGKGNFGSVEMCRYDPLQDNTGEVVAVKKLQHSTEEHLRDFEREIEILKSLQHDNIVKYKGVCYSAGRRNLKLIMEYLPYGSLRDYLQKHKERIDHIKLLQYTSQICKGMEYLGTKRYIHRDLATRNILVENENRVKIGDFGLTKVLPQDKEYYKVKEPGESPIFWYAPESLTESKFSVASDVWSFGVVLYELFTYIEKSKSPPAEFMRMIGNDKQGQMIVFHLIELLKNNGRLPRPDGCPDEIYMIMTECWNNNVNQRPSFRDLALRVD

Turning to `CSc1ccc(OC(F)F)c(-c2nn(C3(CC#N)CN(C)C3)cc2NC(=O)c2cnn3cccnc23)c1` [Example 76, N-(1-(3-(cyanomethyl)-1-methylazetidin-3-yl)-3-(2-(difluoromethoxy)-5-(methylthio)phenyl)-1H-pyrazol-4-yl)pyrazolo[1,5-a]pyrimidine-3-carboxamide], the inhibition constant Ki – broadly, the equilibrium dissociation constant of an inhibitor or competing ligand from its target – in assay [1] was found to be 1.4 nM; in assay [2], 1 nM. Further, in assay [3], the half-maximal inhibitory concentration (IC50) – broadly, the concentration at which inhibition is half-maximal – is 60 nM.

For `CSc1ccc(OC(F)F)c(-c2nn(CCN[C@H]3C[C@H](O)C3)cc2NC(=O)c2cnn3cccnc23)c1` [Example 40], the Ki is 0.28 nM in assay [1] and 0.25 nM in assay [2]. Further, in assay [3], the IC50 worked out at 9.5 nM.

Turning to `CSc1ccc(OC(F)F)c(-c2nn(CC(=O)N3CCN(C4CCOCC4)CC3)cc2NC(=O)c2cnn3cccnc23)c1` [Example 53, N-[3-[2-(difluoromethoxy)-5-methylsulfanyl-phenyl]-1-[2-oxo-2-(4-tetrahydropyran-4-ylpiperazin-1-yl)ethyl]pyrazol-4-yl]pyrazolo[1,5-a]pyrimidine-3-carboxamide], the Ki in assay [1] was found to be 0.27 nM; in assay [2], 0.32 nM. In addition, the IC50 in assay [3] is 12 nM.

With `CC(C)Sc1ccc(OC(F)F)c(-c2nn(CC(=O)N3CCC(N4CCOC[C@H]4CO)CC3)cc2NC(=O)c2cnn3cccnc23)c1` [Example 153], the Ki in assay [1] came to 0.41 nM; in assay [2], 0.91 nM. Moreover, in assay [3], the half-inhibitory concentration (IC50) was found to be 110 nM.

`CN(C)C(=O)CN1CCN(CC2CCN(C(=O)Cn3cc(NC(=O)c4cnn5cccnc45)c(-c4cc(SC5CC5)ccc4OC(F)F)n3)CC2)CC1` [Example 170, N-[3-[5-cyclopropylsulfanyl-2-(difluoromethoxy)phenyl]-1-[2-[4-[[4-[2-(dimethylamino)-2-oxo-ethyl]piperazin-1-yl]methyl]-1-piperidyl]-2-oxo-ethyl]pyrazol-4-yl]pyrazolo[1,5-a]pyrimidine-3-carboxamide]: the Ki in assay [1] came to 0.39 nM; in assay [2] it was 0.78 nM. The IC50 in assay [3] was determined as 25 nM.

In the case of `CSc1ccc(OC(F)F)c(-c2nn(CC(=O)N3CCC(N(CCN4CCOCC4)C4COC4)CC3)cc2NC(=O)c2cnn3cccnc23)c1` [Example 92, N-[3-[2-(difluoromethoxy)-5-methylsulfanyl-phenyl]-1-[2-[4-[2-morpholinoethyl(oxetan-3-yl)amino]-1-piperidyl]-2-oxo-ethyl]pyrazol-4-yl]pyrazolo[1,5-a]pyrimidine-3-carboxamide], the Ki in assay [1] stood at 0.61 nM; in assay [2], 0.77 nM. In assay [3], the half-maximal inhibitory concentration (IC50) turned out to be 1000 nM.

For the molecule `CSc1ccc(OC(F)F)c(-c2nn(CCNC3COC3)cc2NC(=O)c2cnn3cccnc23)c1` [Example 36, N-[3-[2-(difluoromethoxy)-5-methylsulfanyl-phenyl]-1-[2-(oxetan-3-ylamino)ethyl]pyrazol-4-yl]pyrazolo[1,5-a]pyrimidine-3-carboxamide], the inhibition constant Ki in assay [1] amounted to 0.36 nM; in assay [2], 0.29 nM. Further, the IC50 in assay [3] was determined as 9.8 nM.

Consider `CN(C1CCN(C(=O)Cn2cc(NC(=O)c3cnn4cccnc34)c(-c3cc(SC4COC4)ccc3OC(F)F)n2)CC1)C1COC1` [Example 187, N-[3-[2-(difluoromethoxy)-5-(oxetan-3-ylsulfanyl)phenyl]-1-[2-[4-[methyl(oxetan-3-yl)amino]-1-piperidyl]-2-oxo-ethyl]pyrazol-4-yl]pyrazolo[1,5-a]pyrimidine-3-carboxamide], for which the inhibition constant Ki in assay [1] is 0.54 nM; in assay [2] it was 1.3 nM. In assay [3], the IC50 worked out at 250 nM.

On to `CC(C)Sc1ccc(OC(F)F)c(-c2nn(CC(=O)N3CCC(C)(N4CCOCC4)CC3)cc2NC(=O)c2cnn3cccnc23)c1` [Example 132, N-[3-[2-(difluoromethoxy)-5-isopropylsulfanyl-phenyl]-1-[2-(4-methyl-4-morpholino-1-piperidyl)-2-oxo-ethyl]pyrazol-4-yl]pyrazolo[1,5-a]pyrimidine-3-carboxamide], for which the values for the Ki in assay [1] and in assay [2] were 0.67 nM and 1.2 nM, respectively. Moreover, in assay [3], the IC50 turned out to be 36 nM.

`CSc1ccc(OC(F)F)c(-c2nn(CC(=O)N3CCN(C4CCN(CC(=O)N(C)C)CC4)CC3)cc2NC(=O)c2cnn3cccnc23)c1` [Example 89, N-[3-[2-(difluoromethoxy)-5-methylsulfanyl-phenyl]-1-[2-[4-[1-[2-(dimethylamino)-2-oxo-ethyl]-4-piperidyl]piperazin-1-yl]-2-oxo-ethyl]pyrazol-4-yl]pyrazolo[1,5-a]pyrimidine-3-carboxamide]: the Ki in assay [1] was 0.51 nM; in assay [2], 0.78 nM. Besides, in assay [3], the half-maximal inhibitory concentration (IC50) is 200 nM.

With `CSc1ccc(OC(F)F)c(-c2nn(CC(=O)N3CCN([C@H]4CC[C@@H](C#N)CC4)CC3)cc2NC(=O)c2cnn3cccnc23)c1` [Example 99, N-[1-[2-[4-(4-cyanocyclohexyl)piperazin-1-yl]-2-oxo-ethyl]-3-[2-(difluoromethoxy)-5-methylsulfanyl-phenyl]pyrazol-4-yl]pyrazolo[1,5-a]pyrimidine-3-carboxamide], the Ki came out at 0.38 nM in assay [1] and 0.56 nM in assay [2]. In addition, the concentration for half-maximal inhibition (IC50) in assay [3] stood at 9.5 nM.

Consider `CSc1ccc(OC(F)F)c(-c2nn(CC(=O)N3CCC(NCCC#N)CC3)cc2NC(=O)c2cnn3cccnc23)c1` [Example 8, N-[1-[2-[4-(2-cyanoethylamino)-1-piperidyl]-2-oxo-ethyl]-3-[2-(difluoromethoxy)-5-methylsulfanyl-phenyl]pyrazol-4-yl]pyrazolo[1,5-a]pyrimidine-3-carboxamide], for which the inhibition constant (Ki) in assay [1] amounted to 0.29 nM; in assay [2], 0.39 nM. The IC50 in assay [3] stood at 18 nM.

`CSc1ccc(OC(F)F)c(-c2nn(CC(=O)N3CCC(N(C)CCCC#N)CC3)cc2NC(=O)c2cnn3cccnc23)c1` [Example 17, N-[1-[2-[4-[3-cyanopropyl(methyl)amino]-1-piperidyl]-2-oxo-ethyl]-3-[2-(difluoromethoxy)-5-methylsulfanyl-phenyl]pyrazol-4-yl]pyrazolo[1,5-a]pyrimidine-3-carboxamide]: the figures for the inhibition constant (Ki) in assay [1] and in assay [2] were 0.27 nM and 0.53 nM, respectively. Moreover, in assay [3], the IC50 turned out to be 5 nM.

On to `CC(C)Sc1ccc(OC(F)F)c(-c2nn(CC(=O)N3CCC(N4CC[S+]([O-])CC4)CC3)cc2NC(=O)c2cnn3cccnc23)c1` [Example 138, N-[3-[2-(difluoromethoxy)-5-isopropylsulfanyl-phenyl]-1-[2-oxo-2-[4-(1-oxo-1,4-thiazinan-4-yl)-1-piperidyl]ethyl]pyrazol-4-yl]pyrazolo[1,5-a]pyrimidine-3-carboxamide], for which the values for the Ki in assay [1] and in assay [2] were 0.22 nM and 0.17 nM, respectively. Moreover, the concentration for half-maximal inhibition (IC50) in assay [3] is 250 nM.

For the molecule `CSc1ccc(OC(F)F)c(-c2nn(CC(=O)N3CCC(N4CCN(CC(=O)N5CCOCC5)CC4)CC3)cc2NC(=O)c2cnn3cccnc23)c1` [Example 88, N-[3-[2-(difluoromethoxy)-5-methylsulfanyl-phenyl]-1-[2-[4-[4-(2-morpholino-2-oxo-ethyl)piperazin-1-yl]-1-piperidyl]-2-oxo-ethyl]pyrazol-4-yl]pyrazolo[1,5-a]pyrimidine-3-carboxamide], the inhibitory constant (Ki) turned out to be 0.32 nM in assay [1] and 0.49 nM in assay [2]. The IC50 in assay [3] was determined as 470 nM.

Consider `CC(C)Sc1ccc(OC(F)F)c(-c2nn(Cc3cn(C4CCN(C5CCOC5)CC4)nn3)cc2NC(=O)c2cnn3cccnc23)c1` (stereo not drawn) [Example 156, N-[3-[2-(difluoromethoxy)-5-(propan-2-ylsulfanyl)phenyl]-1-([1-[1-(oxolan-3-yl)piperidin-4-yl]-1H-1,2,3-triazol-4-yl]methyl)-1H-pyrazol-4-yl]pyrazolo[1,5-a]pyrimidine-3-carboxamide], for which the inhibitory constant (Ki) turned out to be 0.36 nM in assay [1] and 0.29 nM in assay [2]. Besides, the IC50 in assay [3] came out at 21 nM.

On to `O=C(Nc1cn(CC(=O)N2CCN(C3CCOCC3)CC2)nc1-c1cc(SC2CC2)ccc1OC(F)F)c1cnn2cccnc12` [Example 168, N-[3-[5-cyclopropylsulfanyl-2-(difluoromethoxy)phenyl]-1-[2-oxo-2-(4-tetrahydropyran-4-ylpiperazin-1-yl)ethyl]pyrazol-4-yl]pyrazolo[1,5-a]pyrimidine-3-carboxamide], for which the Ki in assay [1] turned out to be 0.29 nM; in assay [2], 0.46 nM. For the same molecule, the IC50 in assay [3] was determined as 14 nM.

`O=C(Nc1cn(CC(=O)N2CCC(CN3CCOCC3)CC2)nc1-c1cc(SC2CC2)ccc1OC(F)F)c1cnn2cccnc12` [Example 162, N-[3-[5-cyclopropylsulfanyl-2-(difluoromethoxy)phenyl]-1-[2-[4-(morpholinomethyl)-1-piperidyl]-2-oxo-ethyl]pyrazol-4-yl]pyrazolo[1,5-a]pyrimidine-3-carboxamide]: the Ki stood at 0.42 nM in assay [1] and 0.98 nM in assay [2]. Moreover, the 50% inhibitory concentration (IC50) in assay [3] was 15 nM.

Turning to `CCN1CCN(C(=O)Cn2cc(NC(=O)c3cnn4cccnc34)c(-c3cc(SC)ccc3OC(F)F)n2)CC1` [Example 6, N-[3-[2-(difluoromethoxy)-5-methylsulfanyl-phenyl]-1-[2-(4-ethylpiperazin-1-yl)-2-oxo-ethyl]pyrazol-4-yl]pyrazolo[1,5-a]pyrimidine-3-carboxamide], the inhibition constant (Ki) in assay [1] was 0.49 nM; in assay [2], 0.61 nM. The concentration for half-maximal inhibition (IC50) in assay [3] came to 18 nM.
